In PubChem BioAssay AID1902 (Broad Institute, 2009):
Several values for one entry are separate records, joined by “and”; a condition that tells them apart may be missing. Identical values can stand only once. Activity calls are given as the source filed them.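 Rule for the calls: active = EC50 no more than a set limit of log units above the highest dose; inactive = the rest.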

Target: S. pyogenes SKKanGAS, kanamycin survival, BacTiterGlo, 6 h
Assay: S. pyogenes SKKanGAS kanamycin growth inhibitors – SKKanGAS strain, luminescence, dose confirmation, streptokinase promoter inhibitor project, dose response (AID 1902);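 note: lower survival reflects blocked streptokinase promoter driving kanamycin resistance gene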

SMILES	EC50
O=c1ccc(N=Nc2ccccc2)ccc1O	3.51 µM
Cn1cccc1CC(=O)NNC(=S)NC(=O)c1ccccc1Br	1.64 µM
Cc1cccc(/C=C2\Sc3ccc(C(=O)N4CCC(C)CC4)cc3N(C)C2=O)c1	2.69 µM
CC1=NNC(=O)/C1=C\c1cn(-c2ccccc2)nc1-c1ccc(Cl)cc1	5.67 µM
O=C(/C=C/c1ccc(Br)cc1)NC(=S)NNC(=O)c1ccco1	0.391 µM
CCCN(CC(=O)Nc1cc(Cl)cc(Cl)c1)CC(=O)Nc1ccc(F)c(F)c1F	4.87 µM
Cc1cc2occ(CC(=O)NC3=NCCS3)c2cc1C(C)C	4.35 µM
Cc1cc(C)c(COc2ccc(/C=N/n3c(C)n[nH]c3=S)cc2)c(C)c1	5.33 µM
COc1ccc(C2/C=C\CN(C(=O)c3ccccc3)CC(=O)N2Cc2ccc(F)cc2)cc1 (stereo not given)	> 15 µM (inactive)
O=C1CCCc2oc3c(cc(NS(=O)(=O)c4ccc5c6c(cccc46)C(=O)N5)c4ccccc43)c21	4.02 µM
Cc1cc(C)c(OCC(=O)Nc2nc(-c3ccccn3)cs2)c(C)c1	1.4 µM
Cc1ccc(C2CC(c3cccs3)=NN2C(=O)c2ccc(Br)o2)cc1 (stereo not given)	1.94 µM
O=C(NCCS(=O)(=O)N1CCN(c2ccccc2F)CC1)C1CC(=O)N(c2ccc(F)cc2)C1 (stereo not given)	> 15 µM (inactive)
Oc1c(Br)cc(Br)cc1/C=N/c1nc2c(s1)CCCC2	5.86 µM
CCN(CC)S(=O)(=O)c1ccc(N2CCOCC2)c(NC(=O)C2CSC3(C)CCC(=O)N23)c1 (stereo not given)	> 15 µM (inactive)
CCc1ccc(-c2cc(C)no2)cc1S(=O)(=O)Nc1cccc(CN2CCCC2)c1	> 15 µM (inactive)
CC(C)c1nc(N2CCCC2)c(C#N)c2c1CCCC2	4.1 µM
CC(C)(C)c1ccc(S(=O)(=O)N2CCC(c3nc4ccc(Cl)cc4[nH]3)CC2)cc1	5.11 µM
Cc1ccc(C(=O)N/N=C/c2cc(Br)ccc2O)cn1	2.48 µM
CCOc1ccc(Cl)cc1S(=O)(=O)n1cnc2cc(C)c(C)cc21	4.77 µM
CCCCCNC(=O)c1ccc2c(=O)[nH]c3c(C(=O)NCC4CCCO4)sc(=S)n3c2c1 (stereo not given)	2.17 µM
CCc1nn(CCCC(=O)NCc2ccccc2Br)c(=O)c2cc3occc3n12	2.55 µM
O=C(CCc1ccccc1)Nc1nnc(-c2ccc3c(c2)CCCC3)o1	1.59 µM
CCn1c(=O)c(C(=O)Nc2nc3ccccc3[nH]2)c(O)c2ccccc21	1.03 µM
Oc1ccc(Cl)cc1C1=NNC(c2ccc(Cl)cc2)C1 (stereo not given)	1.1 µM
O=C1NC(=Nc2ccc(Cl)cc2)SC1Cc1cccc(Cl)c1Cl (stereo not given)	6.95 µM
Cc1cccc(-n2c(N)c(-c3nc4ccccc4n3C)c3nc4ccccc4nc32)c1	2.26 µM

SMILES	EC50
O=C1/C(=C\c2cc([N+](=O)[O-])ccc2O)SC(=S)N1Cc1ccc(Cl)cc1	2.18 µM
O=C1C(Cl)=C(Nc2ccc3cn[nH]c3c2)C(=O)c2ccccc21	2.21 µM
FC(F)(F)c1cccc(NC(=S)NNC(=S)Nc2ccc(Cl)cc2)c1	4.81 µM
COc1cc(/C=C/c2ccc3cccc(O)c3n2)cc(OC)c1OC	3.66 µM
CCC/C=C(\CCC)C(NS(=O)(=O)c1ccc(C(F)(F)F)cc1)c1ccccc1 (stereo not given)	3.48 µM
CCCCNc1c2c3c(cccc3n(C)c1=O)C(=O)c1ccccc1-2	6.26 µM
O=C(N/N=C/c1cc([N+](=O)[O-])ccc1O)/C(=C\c1cccs1)NC(=O)c1ccccc1	1.81 µM
OC(COCC(F)(F)C(F)(F)C(F)(F)C(F)F)Cn1c2ccc(Cl)cc2c2cc(Cl)ccc21 (stereo not given)	2.16 µM
O=C(Cc1ccccc1)Nn1c(O)c(/C=C2\C=Nc3ccccc32)sc1=S	14.6 µM
COc1ccc(Oc2nc(C(F)(F)F)nc3ccccc23)cc1	7.14 µM
C=CCn1c(O)c(C(C)=Nc2ccc(N(CC)CC)cc2)c(=O)[nH]c1=O	5.73 µM
COCC1=C(C(=O)OC(C)OC(=O)OC(C)C)N2C(=O)[C@@H](NC(=O)/C(=N\OC)c3csc(N)n3)[C@H]2SC1 (stereo not given in full)	0.797 µM
CC(C)CC(=O)Nc1ccc(C(=O)NNC(=S)NC(=O)C2CCCCC2)cc1	1 µM
Cc1cc(NC(=O)c2c(F)cccc2Cl)n(-c2nc3ccccc3[nH]2)n1	8.04 µM
CC[C@@H](C)[C@H](CNC)NC[C@@H](Cc1cccc2ccccc12)NCCc1cccc(C(F)(F)F)c1	2.44 µM
CCOc1cc(CNc2ccc3c(c2)CCC3)ccc1OC	> 15 µM (inactive)
CCOc1cc(/C=C2\C(=O)N(c3nc(-c4ccc(Br)cc4)cs3)N=C2c2ccccc2)ccc1O	1.77 µM
Cc1cc(C)n(-c2nc(SCC(=O)O)c3c4c(sc3n2)COC(C)(C)C4)n1	4.31 µM
O=C1N/C(=N\N=C\c2cccs2)SC1Cc1ccc(Cl)c(Cl)c1 (stereo not given)	11.4 µM
COc1ccccc1N1CC(C(=O)Nc2nnc(SCC(=O)N3CCCC3)s2)CC1=O (stereo not given)	> 15 µM (inactive)
Cc1cccc(-c2oc3ccccc3c2C#CCCCCO)c1	5.72 µM
COc1cc(OC)cc(C(=O)Nc2nc(CC(=O)NCc3ccccc3OC)cs2)c1	12.4 µM
CCCn1c(NC(=O)c2ccccc2Br)nc2ccccc21	5.66 µM
CC(C)(C)c1ccc(Cn2ccc(-c3ccc4c(c3)OCO4)n2)cc1	7.09 µM
CC(=O)Nc1ccc(S(=O)(=O)N2CCN=C2SCc2ccc(C)cc2)cc1	> 15 µM (inactive)
O=C(CNC(=O)c1ccccc1Br)N/N=C\c1cc([N+](=O)[O-])cc(Br)c1O	8.11 µM
Cc1ccc(/C(O)=C/C(=O)C(=O)NC23CC4CC(CC(C4)C2)C3)cc1	2.06 µM

SMILES	EC50
Cc1ccccc1C(=O)NNC(=S)NC(=O)c1cccs1	2.31 µM
CCOc1ccc(NC(=S)N=Nc2c(O)[nH]c3ccccc23)cc1	0.525 µM
CCN(CC)C(=S)SCC(=O)Nc1nc(-c2ccccc2)c(-c2ccccc2)o1	1.26 µM
CCC(C)Sc1cc(C(F)(F)F)c(C(=O)Nc2ccc(Cl)cc2)cn1 (stereo not given)	7.31 µM
CCc1c(C)nc2cc(-c3ccc(OC)c(OC)c3)nn2c1N1CCC(C)CC1	7.56 µM
CC(C)(C)OC(=O)NCCCC[C@H](NC(=O)c1[nH]cnc1C(=O)Nc1ccc(Cl)cc1)C(=O)OC(C)(C)C	2.19 µM
Cc1cccc(Oc2nc(-c3ccncc3)nc3ccccc23)c1	8.04 µM
O=C(CNc1cccc2ccccc12)N/N=C/c1ccc([N+](=O)[O-])o1	1.12 µM
COC(=O)c1sc(N2C(=O)C(O)=C(C(=O)c3ccc(C)o3)C2c2ccc([N+](=O)[O-])cc2)nc1C (stereo not given)	4.1 µM
CCCCCCCCCCOC(=O)Cn1c(COc2cccc(C)c2)[n+](C)c2ccccc21	2.83 µM
COc1cccc(-c2nn(C)c3sc(C(=O)Nc4ccc5c(c4)OCCO5)cc23)c1	3.65 µM
CC(C)Nc1cc(C(C)(C)C)nc2c(-c3ccccc3)cnn12	4.42 µM
NS(=O)(=O)c1ccc(N/N=C2/CCCCC2C2CCCCC2)c([N+](=O)[O-])c1 (stereo not given)	3.11 µM
Cc1cc(Oc2cnn(C(C)(C)C)c(=O)c2Cl)cc(C(C)C)c1	4.37 µM
CCCN(CCC)S(=O)(=O)c1ccc(C(=O)Nc2nnc(COC)o2)cc1	5 µM
O=S(=O)(Cc1cc(NCc2ccccc2)nc(-c2ccccn2)n1)c1ccccc1	0.808 µM
Cc1cccc(-c2oc3ccccc3c2-c2ccc3c(c2)OCO3)c1	3.65 µM
Cc1ccc(O)c(NC(=S)NC(=O)c2ccc(-c3ccc(Cl)cc3)o2)c1	0.221 µM
CN(C(=O)CSc1nc(-c2ccc(C(C)(C)C)cc2)c(C#N)c(=O)[nH]1)C1CCCCC1	1.36 µM
Nc1nonc1-c1nc2ccccc2n1CC(=O)N/N=C/c1ccc(-c2cccc(C(=O)O)c2)o1	3.02 µM
Oc1c(N=NC(=S)Nc2ccccc2F)c2ccccc2n1Cc1cccc(Cl)c1	0.658 µM
Cc1ccc(S(=O)(=O)N2CCCCC2)cc1NC(=O)CN1C(=O)CN(C)C1=O	> 15 µM (inactive)
C=C(C)C1Cc2c(C)nn(-c3nc(C)cc(C)n3)c2C1 (stereo not given)	0.694 µM
CC(C)=CCc1c(O)cc2oc3c(CC=C(C)C)c(O)c(O)c(CC=C(C)C)c3c(=O)c2c1O	0.828 µM
CCN1/C(=C/c2ccc3ccccc3[n+]2CC)C=Cc2ccccc21	6.08 µM
CCC(C)Sc1cccc(-c2nc3ccc(C)cn3c2NCc2ccccc2)c1 (stereo not given)	3.24 µM
CC(C)c1ccc(N2C(=O)/C(=C/N(C)C)SC2=S)cc1	4.7 µM

SMILES	EC50
Cc1cnn(-c2nc(-c3ccccc3)cc(-c3ccccc3)n2)c1	4.51 µM
Fc1ccc(CO/N=C/C2=C(Cl)c3ccccc3CC2)cc1	3.96 µM
CCCCn1c(/C=N/Nc2nc3ccccc3[nH]2)nc2ccccc21	1.17 µM
CCOC(=O)c1c(NC(=O)c2cccs2)sc(CC)c1-c1cccs1	13.1 µM
Cn1ccc(=Nc2ccc(NC(=O)c3ccc(N=c4ccn(C)c5ccc([N+](=O)[O-])cc45)cc3)cc2)cc1	0.357 µM
COc1ccc(-c2coc3c(C)c4oc(=O)c(CCC(=O)O)c(C)c4cc23)cc1	2.13 µM
O=C(CN1c2ccccc2Sc2ccccc21)NNC(=O)Nc1ccc(Cl)c(Cl)c1	2.23 µM
Nc1nc(NC(=O)/C=C/c2ccc(F)cc2)nn1-c1ccccc1	2.62 µM
COc1cc(Cl)cc(/C=C/c2ccc3cccc(O)c3n2)c1OC	0.951 µM
O=C(Nc1ccccc1C(=O)O)c1cccc(NC(=O)c2ccc(Br)o2)c1	4.96 µM
NNc1nc(Nc2ccccc2)nc(Nc2ccccc2)n1	4.04 µM
Cc1c(Cc2ccccc2)c(=O)oc2cc(OCc3ccc(C(=O)O)cc3)ccc12	5.9 µM
Cc1oc(-c2ccccc2Cl)nc1Cn1cccc1C1=NC(c2ccccc2)CO1 (stereo not given)	> 15 µM (inactive)
N#Cc1c(-c2c(Cl)cccc2Cl)noc1/C=C/Nc1ccc(C(=O)O)cc1	4.6 µM
CCCCn1c(=O)c(C(=O)Nc2ccccn2)c(O)c2ccccc21	5.09 µM
Cc1ccc(S(=O)(=O)Nc2cccc3cccnc23)c([N+](=O)[O-])c1	0.632 µM
Cn1ncc2c(Nc3ccc(Br)cc3)nc(Nc3ccc(Br)cc3)nc21	1.08 µM
Cc1ccc(N/N=C2\CS(=O)(=O)N(C)c3ccsc32)cc1	1.49 µM
CCSc1nnc(NC(=O)c2nc(-c3ccccc3)n(-c3ccccc3)n2)s1	3.49 µM
Cc1ccc(C(O)(C(=O)NNc2ccc3ccccc3n2)c2ccc(C)cc2)cc1	2.04 µM and 2.98 µM
CCCCCCCCCCCCN1[C@@H](CC(=O)O)c2cc(C(F)(F)F)ccc2S1(=O)=O	2.44 µM
CC(C)CN(Cc1cc(=O)oc2cc(-c3ccccc3)c(O)cc12)CC(C)C	3.88 µM
Cc1cccc(NC(=S)/N=C(\N)Nc2nc(C)c3ccc(C)cc3n2)c1	> 15 µM (inactive)
Cc1cc(C)c2sc(NNC(=O)c3ccc(S(=O)(=O)N4CCc5ccccc5C4)cc3)nc2c1	1.06 µM
